Experiments:
[1] = Safety and tolerability in Phase I single-dose trial; format: in vivo, human healthy subjects; conditions: single doses of 200 mg TMC125, healthy subjects
Source text: No clinically relevant safety issues were identified with respect to the parameters studied, including AEs, laboratory and cardiovascular safety, and physical and skin examinations.

[2] = background statement; cited from earlier work

SMILES: Cc1cc(C#N)cc(C)c1Oc1nc(Nc2ccc(C#N)cc2)nc(N)c1Br [TMC125, 4-[[6-amino-5-bromo-2-[(4-cyanophenyl)amino]-4-pyrimidinyl]oxy]-3,5-dimethylbenzonitrile]
- safety and tolerability (AEs, laboratory, cardiovascular, physical and skin examinations) [1]: generally safe and well tolerated
- solubility in aqueous media [2]: very insoluble
